Laboratory results as given in patent US11814367B2, “Inhibitors of glycogen synthase 1 (GYS1) and methods of use thereof” (Maze Therapeutics, Inc., priority 2021, dated 2023).

Assays:
[1] = biological target: hGYS1 enzyme (recombinant hGYS1/GN1 protein) (Homo sapiens (Human), UniProt P13807); assay: GYS1 coupled enzyme assay (PK/LDH); type: biochemical; details: hGYS1/GN1 50 nM, UDP-Glucose 0.8 mM, G6P 1 mM; geometric mean of at least 2 runs
[2] = test system: hGYS1 enzyme / glycogen synthesis in HeLa cells; assay: GYS1 cell based assay (glycogen synthesis, Glucose-glo); set-up: species or system human; details: Homo sapiens, HeLa, 24 h, 24 h incubation, 20 mM glucose, geometric mean of at least 2 runs
Outline: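 HeLa cells starved 24 h in medium containing only 1× Glutamax were plated onto compound in medium with 20 mM glucose (1% DMSO final) for 24 h, 37 °C, 5% CO2. Acid lysates were Tris-quenched, glucoamylase-digested (pH 5.3, 1 h, 37 °C) and read by Glucose-glo luminescence. IC50 came from Hill fits, as geometric mean of ≥2 runs.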

[3] = biological target: hGYS2 enzyme (recombinant hGYS2/GN1 protein) (Homo sapiens (Human), UniProt P54840); assay: GYS2 coupled enzyme assay (PK/LDH); type: biochemical; details: geometric mean of at least 2 assay runs on separate days, read-out: Avg_IC50
Outline: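 IC50 came from Hill fits of duplicate percent inhibition, based on control-normalized slopes of 340 nm NADH decline read each minute for 10 min. The reaction held recombinant hGYS2/GN1 (200 nM) with glycogen, UDP-glucose, G6P and PEP, plus PK/LDH coupling at pH 7.5 and 2.5% DMSO.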

Sequence of hGYS2 enzyme (recombinant hGYS2/GN1 protein) (P54840 whole entry): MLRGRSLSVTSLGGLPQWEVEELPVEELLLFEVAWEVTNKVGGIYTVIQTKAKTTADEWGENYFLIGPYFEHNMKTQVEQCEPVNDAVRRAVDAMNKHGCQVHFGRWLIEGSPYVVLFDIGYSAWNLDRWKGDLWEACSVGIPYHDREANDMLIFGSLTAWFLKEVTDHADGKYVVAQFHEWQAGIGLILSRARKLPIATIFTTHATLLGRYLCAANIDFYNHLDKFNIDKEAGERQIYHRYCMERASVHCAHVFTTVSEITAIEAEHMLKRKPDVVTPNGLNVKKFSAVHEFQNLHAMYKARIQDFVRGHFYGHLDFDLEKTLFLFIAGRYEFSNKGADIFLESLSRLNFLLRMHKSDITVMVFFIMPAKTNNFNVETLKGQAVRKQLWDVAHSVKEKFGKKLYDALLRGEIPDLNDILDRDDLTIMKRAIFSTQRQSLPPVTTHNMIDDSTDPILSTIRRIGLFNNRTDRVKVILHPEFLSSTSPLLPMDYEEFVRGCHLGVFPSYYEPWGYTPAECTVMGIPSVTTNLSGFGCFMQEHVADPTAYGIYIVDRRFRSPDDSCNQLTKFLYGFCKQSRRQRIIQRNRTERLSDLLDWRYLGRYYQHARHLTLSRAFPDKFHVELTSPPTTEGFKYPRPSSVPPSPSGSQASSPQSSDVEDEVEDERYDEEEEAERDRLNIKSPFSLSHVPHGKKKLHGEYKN
Sequence of hGYS2 enzyme (recombinant hGYS2/GN1 protein) (P46976 whole entry partner): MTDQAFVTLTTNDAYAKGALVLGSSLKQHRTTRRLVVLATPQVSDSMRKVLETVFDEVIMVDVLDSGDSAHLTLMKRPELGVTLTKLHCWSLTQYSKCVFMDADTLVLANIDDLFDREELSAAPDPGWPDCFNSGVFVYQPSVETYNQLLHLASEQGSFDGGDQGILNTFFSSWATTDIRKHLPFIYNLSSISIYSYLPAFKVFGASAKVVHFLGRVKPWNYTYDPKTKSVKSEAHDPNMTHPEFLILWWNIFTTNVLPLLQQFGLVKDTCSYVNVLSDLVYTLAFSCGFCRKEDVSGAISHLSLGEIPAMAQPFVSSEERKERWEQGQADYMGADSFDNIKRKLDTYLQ
Sequence of hGYS1 enzyme (recombinant hGYS1/GN1 protein) (P13807 whole entry): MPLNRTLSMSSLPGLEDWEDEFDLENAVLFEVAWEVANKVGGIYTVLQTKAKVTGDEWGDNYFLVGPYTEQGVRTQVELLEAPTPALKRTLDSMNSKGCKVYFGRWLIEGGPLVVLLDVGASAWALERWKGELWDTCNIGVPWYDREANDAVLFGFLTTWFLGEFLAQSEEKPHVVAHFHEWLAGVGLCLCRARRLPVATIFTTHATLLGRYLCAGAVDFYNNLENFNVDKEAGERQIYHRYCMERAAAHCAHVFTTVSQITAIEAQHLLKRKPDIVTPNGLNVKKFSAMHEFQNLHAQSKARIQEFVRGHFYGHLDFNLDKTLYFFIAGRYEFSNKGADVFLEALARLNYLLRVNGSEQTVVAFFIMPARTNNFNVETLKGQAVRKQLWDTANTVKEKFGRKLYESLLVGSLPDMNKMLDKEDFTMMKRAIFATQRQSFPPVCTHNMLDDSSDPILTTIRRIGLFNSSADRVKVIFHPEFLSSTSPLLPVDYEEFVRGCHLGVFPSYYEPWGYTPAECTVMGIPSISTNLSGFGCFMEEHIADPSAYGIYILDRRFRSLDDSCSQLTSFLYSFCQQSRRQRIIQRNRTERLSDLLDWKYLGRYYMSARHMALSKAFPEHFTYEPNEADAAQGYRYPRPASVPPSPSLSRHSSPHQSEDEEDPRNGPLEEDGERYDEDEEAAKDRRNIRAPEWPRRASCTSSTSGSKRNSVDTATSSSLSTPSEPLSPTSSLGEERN
Sequence of hGYS1 enzyme (recombinant hGYS1/GN1 protein) (P46976 whole entry partner): as the sequence (P46976 whole entry partner) above

| IC50 [1] | IC50 [2] | IC50 [3] | Structure (SMILES) |
| --- | --- | --- | --- |
| 1500 nM | 10700 nM | > 100000 nM | CCn1c(=O)c(C)cn(CC(=O)N2C[C@H](F)C[C@H]2C(=O)N[C@H](c2ccccc2)c2ccc(C3CC(F)(F)C3)c(F)n2)c1=O [Compound 518, (2S,4R)-N-[(R)-[5-(3,3-difluorocyclobutyl)-6-fluoropyridin-2-yl](phenyl)methyl]-1-[2-(3-ethyl-5-methyl-2,4-dioxo-1,2,3,4-tetrahydropyrimidin-1-yl)acetyl]-4-fluoropyrrolidine-2-carboxamide] |
| 8 nM | 220 nM | > 100000 nM | CCn1cc(CC(=O)N2C[C@H](F)C[C@H]2C(=O)N[C@@H](c2ccccc2)c2ccc(C3CC(F)(F)C3)c(F)n2)ccc1=O [Compound 519, (2S,4R)-N-[(S)-[5-(3,3-difluorocyclobutyl)-6-fluoropyridin-2-yl](phenyl)methyl]-1-[2-(1-ethyl-6-oxo-1,6-dihydropyridin-3-yl)acetyl]-4-fluoropyrrolidine-2-carboxamide] |
| 557 nM | > 30000 nM | > 100000 nM | O=C(N[C@H](c1ccccc1)c1ccc(C2CC(F)(F)C2)c(F)n1)[C@@H]1C[C@@H](F)CN1C(=O)Cc1ccc(=O)[nH]c1 [Compound 520, (2S,4R)-N-[(R)-[5-(3,3-difluorocyclobutyl)-6-fluoropyridin-2-yl](phenyl)methyl]-4-fluoro-1-[2-(6-oxo-1,6-dihydropyridin-3-yl)acetyl]pyrrolidine-2-carboxamide] |
| 5 nM | 450 nM | > 100000 nM | Cc1cc(CC(=O)N2C[C@H](F)C[C@H]2C(=O)N[C@@H](c2ccccc2)c2ccc(C3CC(F)(F)C3)c(F)n2)c[nH]c1=O [Compound 522, (2S,4R)-N-[(S)-[5-(3,3-difluorocyclobutyl)-6-fluoropyridin-2-yl](phenyl)methyl]-4-fluoro-1-[2-(5-methyl-6-oxo-1,6-dihydropyridin-3-yl)acetyl]pyrrolidine-2-carboxamide] |
| 65 nM | 1180 nM | > 100000 nM | CN(C)C(=O)NCC(=O)N1C[C@H](F)C[C@H]1C(=O)N[C@@H](c1ccccc1)c1ccc(C2CC(F)(F)C2)cn1 [Compound 532, (2S,4R)—N—((S)-(5-(3,3-difluorocyclobutyl)pyridin-2-yl)(phenyl)methyl)-1-((dimethylcarbamoyl)glycyl)-4-fluoropyrrolidine-2-carboxamide] |
| 43 nM | 1210 nM | > 100000 nM | O=C(N[C@@H](c1ccccc1)c1ccc(C2CC(F)(F)C2)cn1)[C@@H]1C[C@@H](F)CN1C(=O)CNC(=O)N1CCC1 [Compound 533, (2S,4R)-1-{2-[(azetidine-1-carbonyl)amino]acetyl}-N-[(S)-[5-(3,3-difluorocyclobutyl)pyridin-2-yl](phenyl)methyl]-4-fluoropyrrolidine-2-carboxamide] |
| 57 nM | 1280 nM | > 100000 nM | O=C(N[C@@H](c1ccccc1)c1ccc(C2CC(F)(F)C2)cn1)[C@@H]1C[C@@H](F)CN1C(=O)Cc1cnn[nH]1 [Compound 534, (2S,4R)-N-[(S)-[5-(3,3-difluorocyclobutyl)pyridin-2-yl](phenyl)methyl]-4-fluoro-1-[2-(1H-1,2,3-triazol-5-yl)acetyl]pyrrolidine-2-carboxamide] |
| 12 nM | 1220 nM | > 100000 nM | Cc1cn(CC(=O)N2C[C@H](F)C[C@H]2C(=O)N[C@@H](c2ccccc2)c2ccc(C3CC(F)(F)C3)cn2)c(=O)[nH]c1=O [Compound 535, (2S,4R)-N-[(S)-[5-(3,3-difluorocyclobutyl)pyridin-2-yl](phenyl)methyl]-4-fluoro-1-[2-(5-methyl-2,4-dioxo-1,2,3,4-tetrahydropyrimidin-1-yl)acetyl] pyrrolidine-2-carboxamide] |
| 24 nM | 350 nM | > 100000 nM | Cc1cnc(CC(=O)N2C[C@H](F)C[C@H]2C(=O)N[C@@H](c2ccccc2)c2ccc(C3CC(F)(F)C3)cn2)o1 [Compound 536, (2S,4R)-N-[(S)-[5-(3,3-difluorocyclobutyl)pyridin-2-yl](phenyl)methyl]-4-fluoro-1-[2-(5-methyl-1,3-oxazol-2-yl)acetyl]pyrrolidine-2-carboxamide] |
| 11 nM | 160 nM | > 100000 nM | O=C(N[C@@H](c1ccccc1)c1ccc(C2CC(F)(F)C2)cn1)[C@@H]1C[C@@H](F)CN1C(=O)Cn1cnc2ccccc21 [Compound 537, (2S,4R)-1-[2-(1H-1,3-benzodiazol-1-yl)acetyl]-N-[(S)-[5-(3,3-difluorocyclobutyl)pyridin-2-yl] (phenyl)methyl]-4-fluoropyrrolidine-2-carboxamide] |
| 48 nM | 1220 nM | > 100000 nM | O=C(N[C@@H](c1ccccc1)c1ccc(C2CC(F)(F)C2)cn1)[C@@H]1C[C@@H](F)CN1C(=O)CNC(=O)N1CC(F)(F)C1 [Compound 538, (2S,4R)-1-{2-[(3,3-difluoroazetidine-1-carbonyl)amino]acetyl}-N-[(S)-[5-(3,3-difluorocyclobutyl)pyridin-2-yl](phenyl)methyl]-4-fluoropyrrolidine-2-carboxamide] |
| 68 nM | 960 nM | > 100000 nM | O=C(N[C@@H](c1ccccc1)c1ccc(C2CC(F)(F)C2)cn1)[C@@H]1C[C@@H](F)CN1C(=O)Cc1ncco1 [Compound 539, (2S,4R)-N-[(S)-[5-(3,3-difluorocyclobutyl)pyridin-2-yl] (phenyl)methyl]-4-fluoro-1-[2-(1,3-oxazol-2-yl)acetyl] pyrrolidine-2-carboxamide] |
| 47 nM | 590 nM | > 100000 nM | Cc1coc(CC(=O)N2C[C@H](F)C[C@H]2C(=O)N[C@@H](c2ccccc2)c2ccc(C3CC(F)(F)C3)cn2)n1 [Compound 540, (2S,4R)-N-[(S)-[5-(3,3-difluorocyclobutyl)pyridin-2-yl] (phenyl)methyl]-4-fluoro-1-[2-(4-methyl-1,3-oxazol-2-yl)acetyl] pyrrolidine-2-carboxamide] |
| 55 nM | 650 nM | > 100000 nM | Cc1nn(CC(=O)N2C[C@H](F)C[C@H]2C(=O)N[C@@H](c2ccccc2)c2ccc(C3CC(F)(F)C3)cn2)c(=O)o1 [Compound 541, (2S,4R)-N-[(S)-[5-(3,3-difluorocyclobutyl)pyridin-2-yl](phenyl)methyl]-4-fluoro-1-[2-(5-methyl-2-oxo-2,3-dihydro-1,3,4-oxadiazol-3-yl)acetyl]pyrrolidine-2-carboxamide] |
| 11 nM | 1480 nM | > 100000 nM | O=C(N[C@@H](c1ccccc1)c1ccc(C2CC(F)(F)C2)cn1)[C@@H]1C[C@@H](F)CN1C(=O)Cc1[nH]nnc1C(F)(F)F [Compound 542, (2S,4R)-N-[(S)-[5-(3,3-difluorocyclobutyl)pyridin-2-yl] (phenyl)methyl]-4-fluoro-1-{2-[4-(trifluoromethyl)-1H-1,2,3-triazol-5-yl]acetyl} pyrrolidine-2-carboxamide] |
| 11 nM | 260 nM | > 100000 nM | O=C(N[C@@H](c1ccccc1)c1ccc(C2CC(F)(F)C2)c(F)c1)[C@@H]1C[C@@H](F)CN1C(=O)CNC(=O)N1CCC1 [Compound 544, (2S,4R)-1-((azetidine-1-carbonyl)glycyl)-N—((S)-(4-(3,3-difluorocyclobutyl)-3-fluorophenyl)(phenyl)methyl)-4-fluoropyrrolidine-2-carboxamide] |
| 27 nM | 510 nM | > 100000 nM | O=C(N[C@@H](c1ccccc1)c1ccc(C2CC(F)(F)C2)c(F)c1)[C@@H]1C[C@@H](F)CN1C(=O)Cc1cnn[nH]1 [Compound 546, (2S,4R)-N-[(S)-[4-(3,3-difluorocyclobutyl)-3-fluorophenyl](phenyl)methyl]-4-fluoro-1-[2-(1H-1,2,3-triazol-5-yl)acetyl]pyrrolidine-2-carboxamide] |
| 16 nM | 360 nM | > 100000 nM | CN(C)C(=O)NCC(=O)N1C[C@H](F)C[C@H]1C(=O)N[C@@H](c1ccccc1)c1ccc(C2CC(F)(F)C2)c(F)c1 [Compound 547, (2S,4R)-N-[(S)-[4-(3,3-difluorocyclobutyl)-3-fluorophenyl](phenyl)methyl]-1-{2-[(dimethylcarbamoyl)amino]acetyl}-4-fluoropyrrolidine-2-carboxamide] |
| 328 nM | 5760 nM | > 100000 nM | CN(C)C(=O)NCC(=O)N1C[C@H](F)C[C@H]1C(=O)N[C@H](c1ccccc1)c1ccc(C2CC(F)(F)C2)c(F)c1 [Compound 548, (2S,4R)-N-[(R)-[4-(3,3-difluorocyclobutyl)-3-fluorophenyl](phenyl)methyl]-1-{2-[(dimethylcarbamoyl)amino]acetyl}-4-fluoropyrrolidine-2-carboxamide] |
| 6 nM | 120 nM | > 100000 nM | O=C(N[C@@H](c1ccccc1)c1ccc(C2CC(F)(F)C2)c(F)c1)[C@@H]1C[C@@H](F)CN1C(=O)Cn1cnc2ccccc21 [Compound 549, (2S,4R)-1-[2-(1H-1,3-benzodiazol-1-yl)acetyl]-N-[(S)-[4-(3,3-difluorocyclobutyl)-3-fluorophenyl](phenyl)methyl]-4-fluoropyrrolidine-2-carboxamide] |
